Assay results published in patent publication EP4793274A1, “SALT AND CRYSTAL FORM OF KIF18A INHIBITOR COMPOUND, PREPARATION METHOD THEREFOR AND USE THEREOF” (Hubei Bio-Pharmaceutical Industrial Technological Institute …, priority 2023, dated 2025).
Where a name gives a salt, the structure may show the parent alone.

Tests used:
[1] = Dynamic solubility at 37 °C in H2O, SGF, FaSSIF and FeSSIF (HPLC concentration, pH of filtrate, XRPD of residual solid); assay type: physicochemical; settings: listed as Crystal form A of maleate; for S: solubility: feeding concentration 10 mg/mL; for FC: crystal form change: XRPD of residual solid; for pH: pH of filtrate
Procedure: 0.82 mL of glacial acetic acid and 1.18 g of NaCl were added to a 100 mL volumetric flask and completely dissolved by addition of purified water.
The solubility of each sample in H2O, SGF, FaSSIF, and FeSSIF was determined at different time points (1 h, 2 h, 4 h, and 24 h). […] 137-156. […] Table C-2. Summary of dynamic solubility test results at 37 °C

[2] = Hygroscopicity by dynamic vapor sorption (DVS); assay type: physicochemical; settings: 25 °C/80% RH
Procedure: Dynamic vapor sorption (DVS) curves were acquired on a DVS IntrInsic from Surface Measurement Systems (SMS). The relative humidity at 25 °C was corrected with the deliquescence points of LiCl, Mg(NO3)2, and KCl. Table A-5. DVS test parameters
The percentage changes in mass of the samples when the humidity changed (0% RH to 95% RH) at a constant temperature of 25 °C were collected. 157-166.

[3] = Solid state stability (XRPD and HPLC purity); assay type: physicochemical
Description: 167-171. […] Table C-3. Summary of solid state stability evaluation

[4] = Solubility at room temperature in water, SGF and FaSSIF (HPLC concentration, pH of filtrate, XRPD of residual solid); settings: listed as Crystal form A of maleate; for S: solubility: feeding concentration 1 mg/mL; for pH: pH of filtrate
Procedure: 100 mg of NaCl and 50 mg of Triton X-100 were weighed into a 50 mL volumetric flask and then completely dissolved by addition of purified water. 816 µL of 1 M hydrochloric acid was added, and the pH was adjusted to 1.8 with 1 M hydrochloric acid or 1 M NaOH solution. The mixed solution was brought to the volume by addition of purified water.
340 mg of anhydrous NaH2PO4 and 620 mg of NaCl were weighed into a 100 mL volumetric flask, and then completely dissolved by addition of purified water. 55.44 µL of a 50% NaOH solution was then added, and the pH was adjusted to 6.5 with 1 M hydrochloric acid or 1 M NaOH solution. The mixed solution was brought to the volume by addition of purified water. Subsequently, 110 mg of SIF powder was weighed into a 50 mL volumetric flask and completely dissolved in the solution described above, and the mixed solution was brought to the volume.
Solids at a feeding concentration of 1 mg/mL (calculated based on free crystal form) were rotationally mixed with corresponding vehicles at room temperature. […] After sampling at each time point, the samples were centrifuged (at 10000 rpm) and filtered (through a 0.22 µm PTFE filter head), the HPLC concentrations and pH values of the filtrates were determined, and the centrifuged solid samples were subjected to XRPD analysis.

[5] = 80 °C/sealed, 1 day, listed as Crystal form A of maleate

Which “S: solubility” value ([1]; FaSSIF, 1 h, 60 min) does the source give for `Cc1cc(-c2cnn(-c3ccc(NS(=O)(=O)CCO)cc3N3CCC4(CC3)CC4)c2)nc(N2CCC(F)(F)CC2)n1` [crystal form A of the maleate] here?
The value was 62.7 µg/mL.

And the “S: solubility” value ([1]; FaSSIF, 2 h, 120 min)?
Its value is 48.9 µg/mL.

What about the “S: solubility” value ([1]; FaSSIF, 4 h, 240 min) of the same compound?
The value was 39.7 µg/mL.

What about the “S: solubility” value ([1]; FaSSIF, 24 h, 1440 min) of the same compound?
The value was 25.3 µg/mL.

What about the “S: solubility” value ([1]; FeSSIF, 1 h, 60 min) of the same compound?
The value was 202.5 µg/mL.

What about the “S: solubility” value ([1]; FeSSIF, 2 h, 120 min) of the same compound?
The value was 182.4 µg/mL.

And the “S: solubility” value ([1]; FeSSIF, 4 h, 240 min)?
Its value is 169.5 µg/mL.

What about the “S: solubility” value ([1]; FeSSIF, 24 h, 1440 min) of the same compound?
Its value is 94 µg/mL.

What about the “S: solubility” value ([1]; H2O, 1 h, 60 min) of the same compound?
Its value is 13.9 µg/mL.

And the “S: solubility” value ([1]; H2O, 2 h, 120 min)?
Its value is 9.8 µg/mL.

What about the “S: solubility” value ([1]; H2O, 4 h, 240 min) of the same compound?
The value was 5.2 µg/mL.

And the “S: solubility” value ([1]; H2O, 24 h, 1440 min)?
Its value is 0.9 µg/mL.

And the “S: solubility” value ([1]; SGF, 1 h, 60 min)?
The value was 79.5 µg/mL.

What about the “S: solubility” value ([1]; SGF, 2 h, 120 min) of the same compound?
Its value is 71.8 µg/mL.

What about the “S: solubility” value ([1]; SGF, 4 h, 240 min) of the same compound?
The value was 57.9 µg/mL.

What about the “S: solubility” value ([1]; SGF, 24 h, 1440 min) of the same compound?
Its value is 11.1 µg/mL.

What about the “FC: crystal form change” value ([1]; FaSSIF, 1 h) of the same compound?
The value was “Yes”.

What about the “FC: crystal form change” value ([1]; FaSSIF, 2 h) of the same compound?
Its value is “Yes”.

What about the “FC: crystal form change” value ([1]; FaSSIF, 4 h) of the same compound?
The value was “Yes”.

And the “FC: crystal form change” value ([1]; FaSSIF, 24 h)?
Its value is “Yes”.

And the “FC: crystal form change” value ([1]; FeSSIF, 1 h)?
Its value is “Yes”.

And the “FC: crystal form change” value ([1]; FeSSIF, 2 h)?
Its value is “Yes”.

And the “FC: crystal form change” value ([1]; FeSSIF, 4 h)?
The value was “Yes”.

And the “FC: crystal form change” value ([1]; FeSSIF, 24 h)?
The value was “Yes”.

What about the “FC: crystal form change” value ([1]; H2O, 1 h) of the same compound?
The value was “Yes”.

What about the “FC: crystal form change” value ([1]; H2O, 2 h) of the same compound?
Its value is “Yes”.

And the “FC: crystal form change” value ([1]; H2O, 4 h)?
Its value is “Yes”.

And the “FC: crystal form change” value ([1]; H2O, 24 h)?
The value was “Yes”.

And the “FC: crystal form change” value ([1]; SGF, 1 h)?
The value was “Yes”.

And the “FC: crystal form change” value ([1]; SGF, 2 h)?
Its value is “Yes”.

And the “FC: crystal form change” value ([1]; SGF, 4 h)?
Its value is “Yes”.

And the “FC: crystal form change” value ([1]; SGF, 24 h)?
The value was “Yes”.

What about the pH ([1]; FaSSIF, 1 h) of the same compound?
The pH was 2.94.

And the pH ([1]; FaSSIF, 2 h)?
The pH was 2.90.

And the pH ([1]; FaSSIF, 4 h)?
Its pH is 2.90.

What about the pH ([1]; FaSSIF, 24 h) of the same compound?
The pH was 2.90.

What about the pH ([1]; FeSSIF, 1 h) of the same compound?
Its pH is 4.66.

What about the pH ([1]; FeSSIF, 2 h) of the same compound?
Its pH is 4.68.

And the pH ([1]; FeSSIF, 4 h)?
Its pH is 4.67.

And the pH ([1]; FeSSIF, 24 h)?
The pH was 4.70.

What about the pH ([1]; H2O, 1 h) of the same compound?
Its pH is 2.00.

And the pH ([1]; H2O, 2 h)?
Its pH is 2.05.

What about the pH ([1]; H2O, 4 h) of the same compound?
Its pH is 1.98.

What about the pH ([1]; H2O, 24 h) of the same compound?
The pH was 2.03.

And the pH ([1]; SGF, 1 h)?
The pH was 1.55.

And the pH ([1]; SGF, 2 h)?
Its pH is 1.57.

What about the pH ([1]; SGF, 4 h) of the same compound?
The pH was 1.54.

What about the pH ([1]; SGF, 24 h) of the same compound?
Its pH is 1.58.

What about the vapor sorption values [2] of the same compound?
The vapor sorption values was 0.235%.

What about the “HPLC results Relative to starting (%)” value ([3]; 25 °C/60% RH/open, 1 week) of the same compound?
The value was 100.0%.

What about the “HPLC results Purity (area%)” value ([3]; 25 °C/60% RH/open, 1 week, listed as Crystal form A of maleate) of the same compound?
The value was 98.26 area%.

What about the “HPLC results Relative to starting (%)” value ([3]; 40 °C/75% RH/open, 1 week) of the same compound?
The value was 100.0%.

What about the “HPLC results Purity (area%)” value ([3]; 40 °C/75% RH/open, 1 week, listed as Crystal form A of maleate) of the same compound?
The value was 98.30 area%.

And the “HPLC results Purity (area%)” value [3, 5]?
Its value is 98.08 area%.

What about the “HPLC results Relative to starting (%)” value [3, 5] of the same compound?
Its value is 99.8%.

And the “HPLC results Purity (area%)” value ([3]; Starting, listed as Crystal form A of maleate)?
Its value is 98.29 area%.

What about the Crystal form ([3]; XRPD after 25 °C/60% RH/open, 1 week, listed as Crystal form A of maleate) of the same compound?
The Crystal form was “Crystal form A of maleate”.

And the Crystal form ([3]; XRPD after 40 °C/75% RH/open, 1 week, listed as Crystal form A of maleate)?
The Crystal form was “Crystal form A of maleate”.

And the Crystal form ([3]; XRPD after 80 °C/sealed, 1 day, listed as Crystal form A of maleate)?
Its Crystal form is “Crystal form A of maleate”.

What about the “S: solubility” value ([4]; FaSSIF, 2 h, 120 min) of the same compound?
The value was 126.8 µg/mL.

And the “S: solubility” value ([4]; FaSSIF, 24 h, 1440 min)?
Its value is 47.9 µg/mL.

And the “S: solubility” value ([4]; H2O, 24 h, 1440 min)?
The value was 0.3 µg/mL.

And the “S: solubility” value ([4]; SGF, 2 h, 120 min)?
Its value is 51.2 µg/mL.

What about the “S: solubility” value ([4]; SGF, 24 h, 1440 min) of the same compound?
Its value is 36.6 µg/mL.

What about the pH ([4]; FaSSIF, 2 h) of the same compound?
The pH was 6.4.

And the pH ([4]; FaSSIF, 24 h)?
Its pH is 6.2.
